Experimental data taken from patent US20240336654A1, “ANTIMICROBIAL PEPTIDOMIMETICS” (SPEXIS AG, priority 2021, published 2024).
Where a SMILES comes first, the peptide text is derived from it. Bridges are numbered along the chain shown (N, C = ends). [ ]: non-standard residue; d: D form. The star is where a group is joined. Val(Nα-amidino) = CC(C)[C@H](NC(=N)N)C(=O)*; Dab(iPr) = CC(C)NCC[C@H](N)C(=O)O; Hyp = O=C(O)[C@@H]1C[C@@H](O)CN1; Cit = NC(=O)NCCC[C@H](N)C(=O)O; Pen = CC(C)(S)[C@H](N)C(=O)O; dDab = NCC[C@@H](N)C(=O)O; Dab = NCC[C@H](N)C(=O)O

Tests used:
Format in all cases: cell-based
[1] = system: human red blood cells (hRBC); conditions: red cells of human, 1 h, 200 μg/mL
Procedure, shortened: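 Peptides at 200 μg/mL incubated 1 h at 37 °C with 20% (v/v) washed human RBC, shaking. Hemolysis from supernatant OD540, expressed as percent of 2.5% Triton X-100 lysis, with PBS as 0%.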

[2] = system: Escherichia coli MCR-1 Af 45; conditions: MCR-1 Af 45
Procedure, shortened: (§1)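 MICs were determined by CLSI broth microdilution in cation-adjusted Mueller-Hinton II broth with about 5×10^5 CFU/mL inoculum. Peptides were tested in two-fold serial dilutions with 0.002% polysorbate 80 final. MIC in μg/mL is the lowest concentration with no visible growth after 18-20 h at 35 °C.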

[3] = system: Klebsiella pneumoniae SSI3010; conditions: SSI3010
Procedure, shortened: as §1

[4] = system: Escherichia coli ATCC 25922; conditions: ATCC 25922
Procedure, shortened: as §1

| SMILES | Hemolysis at 0.2 g/L [1] [%] | Escherichia coli MCR-1 Af45 MIC [2] [µg/mL] | Klebsiella pneumoniae SSI3010 MIC [3] [µg/mL] | Escherichia coli ATCC 25922 MIC [4] [µg/mL] |
| --- | --- | --- | --- | --- |
| CC[C@H](C)[C@H](NC(=O)[C@@H]1C[C@@H](O)CN1C(=O)[C@@H](NC(=N)N)C(C)C)C(=O)N[C@H]1CCNC(=O)CC[C@@H](C(=O)N[C@@H](Cc2ccc(O)cc2)C(=O)O)NC(=O)[C@H](CCN)NC(=O)[C@H](CCN)NC(=O)[C@H](CCCCN)NC(=O)[C@@H](CCN)NC(=O)[C@H](CO)NC(=O)[C@H](CCN)NC(=O)[C@H](CCCNC(=N)N)NC(=O)[C@H](CC(N)=O)NC(=O)[C@H](CO)NC(=O)[C@H](Cc2ccc(O)cc2)NC1=O [Example 84, Gua-Val-Hyp-Ile-Dab-Tyr-Ser-Asn-Arg-Dab-Ser-^DDab-Lys-Dab-Dab-Glu-Tyr] ({Val(Nα-amidino)}-[Hyp]I[Dab]YSNR[Dab]S[dDab]K[Dab][Dab]EY-OH; lactam 3-14) | <1 | 0.03125 | 0.125 | 0.0625 |
| CC[C@H](C)[C@H](NC(=O)[C@@H]1C[C@@H](O)CN1C(=O)[C@@H](NC(=N)N)C(C)C)C(=O)N[C@H]1CCNC(=O)CC[C@@H](C(=O)N[C@@H](Cc2ccc(O)cc2)C(=O)O)NC(=O)[C@H](CCN)NC(=O)[C@H](CCN)NC(=O)[C@H](CCCCN)NC(=O)[C@@H](CCN)NC(=O)[C@H]([C@@H](C)O)NC(=O)[C@H](CCN)NC(=O)[C@H](CCCNC(=N)N)NC(=O)[C@H](CC(N)=O)NC(=O)[C@H]([C@@H](C)O)NC(=O)[C@H](Cc2ccc(O)cc2)NC1=O [Example 85, Gua-Val-Hyp-Ile-Dab-Tyr-Thr-Asn-Arg-Dab-Thr-^DDab-Lys-Dab-Dab-Glu-Tyr] ({Val(Nα-amidino)}-[Hyp]I[Dab]YTNR[Dab]T[dDab]K[Dab][Dab]EY-OH; lactam 3-14) | 1 | 0.0625 | 0.125 | 0.0625 |
| CC[C@H](C)[C@H](NC(=O)[C@@H]1C[C@@H](O)CN1C(=O)[C@@H](NC(=N)N)C(C)C)C(=O)N[C@H]1CCNC(=O)CC[C@@H](C(=O)N[C@@H](Cc2ccc(O)cc2)C(=O)O)NC(=O)[C@H](CCN)NC(=O)[C@H](CCN)NC(=O)[C@H](CCCCN)NC(=O)[C@@H](CCN)NC(=O)[C@H](CO)NC(=O)[C@H](CCN)NC(=O)[C@H](CCCNC(=N)N)NC(=O)[C@H](CC(N)=O)NC(=O)[C@H]([C@@H](C)O)NC(=O)[C@H](Cc2ccc(O)cc2)NC1=O [Example 86, Gua-Val-Hyp-Ile-Dab-Tyr-Thr-Asn-Arg-Dab-Ser-^DDab-Lys-Dab-Dab-Glu-Tyr] ({Val(Nα-amidino)}-[Hyp]I[Dab]YTNR[Dab]S[dDab]K[Dab][Dab]EY-OH; lactam 3-14) | <1 | 0.03125 | 0.0625 | 0.03125 |
| CC[C@H](C)[C@H](NC(=O)[C@@H]1C[C@@H](O)CN1C(=O)[C@@H](NC(=N)N)C(C)C)C(=O)N[C@H]1CCC(=O)NCC[C@@H](C(=O)N[C@@H](Cc2ccc(O)cc2)C(=O)O)NC(=O)[C@H](CCN)NC(=O)[C@H](CCN)NC(=O)[C@H](CCCCN)NC(=O)[C@@H](CCN)NC(=O)[C@H]([C@@H](C)O)NC(=O)[C@H](CCN)NC(=O)[C@H](CCCNC(=N)N)NC(=O)[C@H](CC(N)=O)NC(=O)[C@H](CO)NC(=O)[C@H](Cc2ccc(O)cc2)NC1=O [Example 87, Gua-Val-Hyp-Ile-Glu-Tyr-Ser-Asn-Arg-Dab-Thr-^DDab-Lys-Dab-Dab-Dab-Tyr] ({Val(Nα-amidino)}-[Hyp]IEYSNR[Dab]T[dDab]K[Dab][Dab][Dab]Y-OH; lactam 3-14) | <1 | 0.0625 | 0.125 | 0.125 |
| CC[C@H](C)[C@H](NC(=O)[C@@H]1C[C@@H](O)CN1C(=O)[C@@H](NC(=N)N)C(C)C)C(=O)N[C@H]1CCC(=O)NCC[C@@H](C(=O)N[C@@H](Cc2ccc(O)cc2)C(=O)O)NC(=O)[C@H](CCN)NC(=O)[C@H](CCN)NC(=O)[C@H](CCCCN)NC(=O)[C@@H](CCN)NC(=O)[C@H]([C@@H](C)O)NC(=O)[C@H](CCN)NC(=O)[C@H](CCCNC(=N)N)NC(=O)[C@H](CC(N)=O)NC(=O)[C@H]([C@@H](C)O)NC(=O)[C@H](Cc2ccc(O)cc2)NC1=O [Example 88, Gua-Val-Hyp-Ile-Glu-Tyr-Thr-Asn-Arg-Dab-Thr-^DDab-Lys-Dab-Dab-Dab-Tyr] ({Val(Nα-amidino)}-[Hyp]IEYTNR[Dab]T[dDab]K[Dab][Dab][Dab]Y-OH; lactam 3-14) | <1 | 0.0625 | 0.125 | 0.125 |
| CC[C@H](C)[C@H](NC(=O)[C@@H]1C[C@@H](O)CN1C(=O)[C@@H](NC(=N)N)C(C)C)C(=O)N[C@H]1CCC(=O)NCC[C@@H](C(=O)N[C@@H](Cc2ccc(O)cc2)C(=O)O)NC(=O)[C@H](CCN)NC(=O)[C@H](CCN)NC(=O)[C@H](CCCCN)NC(=O)[C@@H](CCN)NC(=O)[C@H](CO)NC(=O)[C@H](CCN)NC(=O)[C@H](CCCNC(=N)N)NC(=O)[C@H](CC(N)=O)NC(=O)[C@H]([C@@H](C)O)NC(=O)[C@H](Cc2ccc(O)cc2)NC1=O [Example 89, Gua-Val-Hyp-Ile-Glu-Tyr-Thr-Asn-Arg-Dab-Ser-^DDab-Lys-Dab-Dab-Dab-Tyr] ({Val(Nα-amidino)}-[Hyp]IEYTNR[Dab]S[dDab]K[Dab][Dab][Dab]Y-OH; lactam 3-14) | <1 | 0.125 | 0.125 | 0.125 |
| CC[C@H](C)[C@H](NC(=O)[C@@H]1C[C@@H](O)CN1C(=O)[C@@H](NC(=N)N)C(C)C)C(=O)N[C@@H]1C(=O)N[C@@H](Cc2ccc(O)cc2)C(=O)N[C@@H](CO)C(=O)N[C@@H](CC(N)=O)C(=O)N[C@@H](CCCNC(=N)N)C(=O)N[C@@H](CCN)C(=O)N[C@@H]([C@@H](C)O)C(=O)N[C@H](CCN)C(=O)N[C@@H]([C@@H](C)O)C(=O)N[C@@H](CCN)C(=O)N[C@@H](CCN)C(=O)N[C@H](C(=O)N[C@@H](Cc2ccc(O)cc2)C(=O)O)CSSC1(C)C [Example 90, Gua-Val-Hyp-Ile-Pen-Tyr-Ser-Asn-Arg-Dab-Thr-^DDab-Thr-Dab-Dab-Cys-Tyr] ({Val(Nα-amidino)}-[Hyp]I[Pen]YSNR[Dab]T[dDab]T[Dab][Dab]CY-OH; disulfide 3-14) | <1 | 0.125 | 0.25 | 0.25 |
| CC[C@H](C)[C@H](NC(=O)[C@@H]1C[C@@H](O)CN1C(=O)[C@@H](NC(=N)N)C(C)C)C(=O)N[C@@H]1C(=O)N[C@@H](Cc2ccc(O)cc2)C(=O)N[C@@H]([C@@H](C)O)C(=O)N[C@@H](CC(N)=O)C(=O)N[C@@H](CCCNC(=N)N)C(=O)N[C@@H](CCCNC(N)=O)C(=O)N[C@@H]([C@@H](C)O)C(=O)N[C@H](CCN)C(=O)N[C@@H](CCCCN)C(=O)N[C@@H](CCN)C(=O)N[C@@H](CCN)C(=O)N[C@H](C(=O)N[C@@H](Cc2ccc(O)cc2)C(=O)O)CSSC1(C)C [Example 91, Gua-Val-Hyp-Ile-Pen-Tyr-Thr-Asn-Arg-Cit-Thr-^DDab-Lys-Dab-Dab-Cys-Y] ({Val(Nα-amidino)}-[Hyp]I[Pen]YTNR[Cit]T[dDab]K[Dab][Dab]CY-OH; disulfide 3-14) | <1 | 0.125 | 0.25 | 0.125 |
| CC[C@H](C)[C@H](NC(=O)[C@@H]1C[C@@H](O)CN1C(=O)[C@@H](NC(=N)N)C(C)C)C(=O)N[C@@H]1C(=O)N[C@@H](Cc2ccc(O)cc2)C(=O)N[C@@H]([C@@H](C)O)C(=O)N[C@@H](CC(N)=O)C(=O)N[C@@H](CCCNC(=N)N)C(=O)N[C@@H](CCNC(C)C)C(=O)N[C@@H]([C@@H](C)O)C(=O)N[C@H](CCN)C(=O)N[C@@H](CCCCN)C(=O)N[C@@H](CCN)C(=O)N[C@@H](CCN)C(=O)N[C@H](C(=O)N[C@@H](Cc2ccc(O)cc2)C(=O)O)CSSC1(C)C [Example 92, Gua-Val-Hyp-Ile-Pen-Tyr-Thr-Asn-Arg-Dab(iPr)-Thr-^DDab-Lys-Dab-Dab-Cys-Tyr] ({Val(Nα-amidino)}-[Hyp]I[Pen]YTNR[Dab(iPr)]T[dDab]K[Dab][Dab]CY-OH; disulfide 3-14) | <1 | 0.0625 | 0.25 | 0.0625 |
| CC[C@H](C)[C@H](NC(=O)[C@@H]1C[C@@H](O)CN1C(=O)[C@@H](NC(=N)N)C(C)C)C(=O)N[C@@H]1C(=O)N[C@@H](Cc2ccc(O)cc2)C(=O)N[C@@H]([C@@H](C)O)C(=O)N[C@@H](CC(N)=O)C(=O)N[C@@H](CCCNC(=N)N)C(=O)N[C@@H](CCNC(C)C)C(=O)N[C@@H]([C@@H](C)O)C(=O)N[C@H](CCN)C(=O)N[C@@H](CO)C(=O)N[C@@H](CCN)C(=O)N[C@@H](CCN)C(=O)N[C@H](C(=O)N[C@@H](Cc2ccc(O)cc2)C(=O)O)CSSC1(C)C [Example 93, Gua-Val-Hyp-Ile-Pen-Tyr-Thr-Asn-Arg-Dab(iPr)-Thr-^DDab-Ser-Dab-Dab-Cys-Tyr] ({Val(Nα-amidino)}-[Hyp]I[Pen]YTNR[Dab(iPr)]T[dDab]S[Dab][Dab]CY-OH; disulfide 3-14) | <1 | 0.25 | 0.5 | 0.25 |
